In the supplement of paper PMC10307832:

Key:
Experiment in all cases: relative viability (nuclei count vs DMSO), 5 days (fraction); higher = more cells survive
Vorinostat + Tozasertib = compound: O=C(CCCCCCC(=O)Nc1ccccc1)NO [Vorinostat] + Cc1cc(Nc2cc(N3CCN(C)CC3)nc(Sc3ccc(NC(=O)C4CC4)cc3)n2)n[nH]1 [Tozasertib] (partner 0.1 µM)
Method in brief: (§1)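 Lung cancer cell lines, seeded in 1536-well plates, were treated the following day by pin tool with a single drug or with five library-drug doses (not always all listed) in √10 steps on top of a fixed anchor-drug dose. Cells were fixed and nuclei stained in one step after 5 days, and nuclei were counted. Relative viability is the nuclei count for treated wells divided by that for vehicle wells, reported as medians of duplicate plates.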

Vorinostat + Navitoclax = compound: O=C(CCCCCCC(=O)Nc1ccccc1)NO [Vorinostat] + CC1(C)CCC(c2ccc(Cl)cc2)=C(CN2CCN(c3ccc(C(=O)NS(=O)(=O)c4ccc(N[C@H](CCN5CCOCC5)CSc5ccccc5)c(S(=O)(=O)C(F)(F)F)c4)cc3)CC2)C1 [Navitoclax] (partner 0.5 µM)
Method in brief: as §1

Vorinostat + Lapatinib = compound: O=C(CCCCCCC(=O)Nc1ccccc1)NO [Vorinostat] + CS(=O)(=O)CCNCc1ccc(-c2ccc3ncnc(Nc4ccc(OCc5cccc(F)c5)c(Cl)c4)c3c2)o1 [Lapatinib] (partner 2 µM)
Method in brief: as §1

Vorinostat + Foretinib = compound: O=C(CCCCCCC(=O)Nc1ccccc1)NO [Vorinostat] + COc1cc2c(Oc3ccc(NC(=O)C4(C(=O)Nc5ccc(F)cc5)CC4)cc3F)ccnc2cc1OCCCN1CCOCC1 [Foretinib] (partner 0.25 µM)
Method in brief: as §1

Vorinostat + Alpelisib = compound: O=C(CCCCCCC(=O)Nc1ccccc1)NO [Vorinostat] + Cc1nc(NC(=O)N2CCC[C@H]2C(N)=O)sc1-c1ccnc(C(C)(C)C(F)(F)F)c1 [Alpelisib] (partner 2 µM)
Method in brief: as §1

Cell Line | relative viability (Vorinostat + Tozasertib; first compound 0.253 µM) | relative viability (Vorinostat + Tozasertib; first compound 0.8 µM) | relative viability (Vorinostat + Tozasertib; first compound 2.53 µM) | relative viability (Vorinostat + Tozasertib; first compound 8 µM) | relative viability (Vorinostat + Navitoclax; first compound 0.253 µM) | relative viability (Vorinostat + Navitoclax; first compound 0.8 µM) | relative viability (Vorinostat + Navitoclax; first compound 2.53 µM) | relative viability (Vorinostat + Navitoclax; first compound 8 µM) | relative viability (Vorinostat + Lapatinib; first compound 0.253 µM) | relative viability (Vorinostat + Lapatinib; first compound 0.8 µM) | relative viability (Vorinostat + Lapatinib; first compound 2.53 µM) | relative viability (Vorinostat + Lapatinib; first compound 8 µM) | relative viability (Vorinostat + Foretinib; first compound 0.253 µM) | relative viability (Vorinostat + Foretinib; first compound 0.8 µM) | relative viability (Vorinostat + Foretinib; first compound 2.53 µM) | relative viability (Vorinostat + Foretinib; first compound 8 µM) | relative viability (Vorinostat + Alpelisib; first compound 0.253 µM) | relative viability (Vorinostat + Alpelisib; first compound 0.8 µM) | relative viability (Vorinostat + Alpelisib; first compound 2.53 µM) | relative viability (Vorinostat + Alpelisib; first compound 8 µM)
PC-14 | 0.586 | 0.389 | 0.0619 | 0.018 | 1.16 | 0.985 | 0.198 | 0.091 | 0.36 | 0.251 | 0.135 | 0.0961 | 1.15 | 1.04 | 0.62 | 0.0829 | 1 | 0.903 | 0.263 | 0.0674
SW 1573 | 0.19 | 0.266 | 0.155 | 0.0644 | 1.12 | 0.891 | 0.349 | 0.0555 | 1.17 | 1.07 | 0.824 | 0.133 | 1.29 | 1.07 | 0.75 | 0.15 | 1.03 | 0.901 | 0.587 | 0.147
NCI-H1975 | 0.762 | 0.484 | 0.118 | 0.077 | 1.23 | 0.839 | 0.308 | 0.146 | 1.16 | 0.787 | 0.303 | 0.117 | 0.962 | 0.838 | 0.295 | 0.108 | 0.696 | 0.528 | 0.189 | 0.133
HCC-827 | 0.5 | 0.454 | 0.236 | 0.135 | 1.04 | 1.03 | 0.818 | 0.195 | 0.219 | 0.204 | 0.155 | 0.161 | 1.07 | 1.02 | 0.55 | 0.174 | 1.08 | 1.04 | 0.634 | 0.197
HARA | 0.139 | 0.104 | 0.0618 | 0.0739 | 1.17 | 1.16 | 0.606 | 0.086 | 0.849 | 0.682 | 0.237 | 0.112 | 0.965 | 0.495 | 0.151 | 0.0596 | 0.949 | 0.761 | 0.174 | 0.0907
EMC-BAC-2 | 0.199 | 0.202 | 0.149 | 0.144 | 1.21 | 1.13 | 0.692 | 0.131 | 1.04 | 0.871 | 0.405 | 0.149 | 1.02 | 0.977 | 0.4 | 0.172 | 0.88 | 0.745 | 0.409 | 0.113
NCI-H460 | 0.593 | 0.0486 | 0.0314 | 0.0259 | 1.26 | 0.913 | 0.0765 | 0.0108 | 1.35 | 0.742 | 0.0269 | 0.0111 | 1.09 | 0.927 | 0.0567 | 0.0329 | 0.609 | 0.351 | 0.0248 | 0.0089
NCI-H1651 | 0.609 | 0.326 | 0.153 | 0.0653 | 1.12 | 0.732 | 0.0917 | 0.0643 | 1.07 | 0.532 | 0.108 | 0.0671 | 0.879 | 0.791 | 0.228 | 0.0797 | 1.04 | 0.713 | 0.119 | 0.0787
